# Measurements from patent US20220267854A1, “EGFR AND ROS1 KINASE IN CANCER” (CELL SIGNALING TECHNOLOGY, INC., priority 2012, published 2022).
# Legend:
# [1] = system: BaF3 cells expressing FIG-ROS1(L); test: MTS cell growth assay, BaF3 expressing FIG-ROS1(L); format: cell-based
# Method: (§1) BaF3 and Karpas 299 cells were obtained from DSMZ (Deutsche Sammlung von Mikroorganismen und Zellkulturen GmbH, Germany). BaF3 cells, which need interleukin-3 to survive, were maintained at 37° C. in RPMI-1640 medium (Invitrogen) with 10% fetal bovine serum (FBS) (Sigma) and 1.0 ng/ml murine IL-3 (R&D Systems). Karpas 299 cells (a lymphoma cell line) were grown in RPMI-1640 with 10% FBS.
# (§2) BaF3 cells were transduced with retrovirus encoding FIG-ROS1(S), FIG-ROS1(L), or FLT-31TD (the Internal tandem duplication mutation in FLT3 causes AML leukemia), and selected for IL3 independent growth. Karpas 299 cells, which express NPM-ALK, was used as a positive control. Retroviruses were generated as previously described (see PCT Publication No. WO 2010/093928, incorporated by reference).
# (§3) A MTS assay was performed using the CellTiter 96 Aqueous One Solution Reagent (Promega, Catalog No G3582). […] After 72 hours, 20 μl of the CellTiter 96 Aqueous One Solution Reagent was added into each well of a 96 well assay plate (flat bottom), and then 100 μl of cells grown with or without treatment. Media-only wells were used as controls. The 96 well plate was incubated for 1-4 hours at 37° C., and then viable cells were counted by reading the absorbance at 490 nm using a 96 well plate reader.
# [2] = system: BaF3 cells expressing FIG-ROS1(S); test: MTS cell growth assay, BaF3 expressing FIG-ROS1(S); format: cell-based
# Method: as §1, §2, §3
# [3] = system: BaF3 cells transduced with FLT3/ITD
# Method: as §1, §2, §3
# [4] = system: Karpas 299 cells (express NPM-ALK); settings: FIG. 6, 0-1000 nM, 72 hours
# Method: as §1, §2, §3
# [5] = system: BaF3 cells expressing myc-tagged neomycin (Neo-Myc); test: MTS cell growth assay, BaF3 expressing myc-tagged neomycin; format: cell-based; settings: FIGS. 9A/9B; 0-1.0 uM; negative control BaF3 neo-myc
# Method: as §1, §3
# [6] = system: BaF3 cells expressing FIG-ROS1(S); test: Cleaved caspase-3 flow cytometry (apoptosis), BaF3 FIG-ROS1(S); format: cell-based; settings: FIG. 7
# Text: (§4) The mechanism of death of the BaF3 and Karpas 299 cells was next assessed by measuring the percentage of cleaved-caspase 3 positive cells by flow cytometry assay using cleaved caspase-3 as a marker for apoptosis.
# [7] = system: BaF3 cells expressing FIG-ROS1(L); test: Cleaved caspase-3 flow cytometry (apoptosis), BaF3 FIG-ROS1(L); format: cell-based; settings: FIG. 7
# Text: as §4
# Karpas 299 cells = test: Cleaved caspase-3 flow cytometry (apoptosis), Karpas 299; format: cell-based; settings: FIG. 7
# Text: as §4
# FIG-ROS1(S) = target: T1, FIG-ROS1(S) (Homo sapiens, UniProt P08922); test: Western blotting, phosphorylation of FIG-ROS1(S) in BaF3 cells; format: cell-based
# T1 construct: expressed in transfected cells; host or cells: BaF3 cells (retroviral transduction, selected for IL3-independent growth)
# Text: (§5) All antibodies were from Cell Signaling Technology, Inc. (Danvers, Mass.)
# (§6) Since ROS1, ALK, LTK, InsR, and IGFIR belong to the same family of tyrosine kinases, they may share similar structure in the kinase domain.
# FIG-ROS1(L) = FIG-ROS1(L) (Homo sapiens, UniProt P08922); test: Western blotting, phosphorylation of FIG-ROS1(L) in BaF3 cells; format: cell-based
# Text: as §5, §6
# [8] = system: STAT3, AKT, ERK, Shp2 in FIG-ROS1(S) expressing BaF3 cells; test: Western blotting, downstream signaling molecules in FIG-ROS1(S) expressing BaF3 cells; format: cell-based
# Text: as §5, §6
# [9] = system: STAT3, AKT, ERK, Shp2 in FIG-ROS1(L) expressing BaF3 cells; test: Western blotting, downstream signaling molecules in FIG-ROS1(L) expressing BaF3 cells; format: cell-based
# Text: as §5, §6
# [10] = system: STAT3, AKT, ERK, Shp2 in BaF3 cells transduced with the FLT-3ITD retrovirus; format: cell-based; settings: FLT-3ITD BaF3
# Text: as §5, §6
# [11] = FIGS. 9A/9B, 0-1.0 uM, same concentration of each
# [12] = FIG. 8, 0, 10, 50, or 100 nM for three hours
# [13] = FIG. 10, 0, 0.1, 0.3, or 1.0 uM for three hours
structure (smiles),measurement,setting,value
COc1cc(N2CCC(N3CCN(C)CC3)CC2)ccc1Nc1ncc(Cl)c(Nc2ccccc2S(=O)(=O)C(C)C)n1 [TAE-684],cellular growth response,"[1]; FIG. 6, 0-1000 nM, 72 hours",stopped growing
same,"cellular growth response, TAE-684 compared with crizotinib",[1]; [11],more sensitive to TAE-684 than to crizotinib
same,cellular growth response,"[2]; FIG. 6, 0-1000 nM, 72 hours",stopped growing
same,"cellular growth response, TAE-684 compared with crizotinib",[2]; [11],more sensitive to TAE-684 than to crizotinib
same,cellular growth response,"[3]; FIG. 6, 0-1000 nM, 72 hours, BaF3 FLT3/ITD",not susceptible
same,"cellular growth response, compared with FIG-ROS1 BaF3 and Karpas 299 cells","[3]; FIGS. 9A/9B, 0-1.0 uM, negative control BaF3 FLT3-ITD",less sensitive
same,cellular growth response,[4],stopped growing
same,"cellular growth response, compared with FIG-ROS1 BaF3 and Karpas 299 cells",[5],less sensitive
same,"mechanism of death, cleaved-caspase 3 positive cells",[6],die by apoptosis
same,"mechanism of death, cleaved-caspase 3 positive cells",[7],die by apoptosis
same,"mechanism of death, cleaved-caspase 3 positive cells",Karpas 299 cells,did not die by apoptosis
same,phosphorylation of FIG-ROS1(S),FIG-ROS1(S); [12],inhibited
same,phosphorylation of FIG-ROS1(L),FIG-ROS1(L); [12],inhibited
same,"phosphorylation of STAT3, AKT, and ERK, and Shp2",[8]; [12],inhibited
same,"phosphorylation of STAT3, AKT, and ERK, and Shp2",[9]; [12],inhibited
same,"phosphorylation of STAT3, AKT, and ERK, and Shp2",[10]; [12],not affected
C[C@@H](Oc1cc(-c2cnn(C3CCNCC3)c2)cnc1N)c1c(Cl)ccc(F)c1Cl [crizotinib],phosphorylation of FIG-ROS1(S),FIG-ROS1(S); [13],inhibited
same,phosphorylation of FIG-ROS1(L),FIG-ROS1(L); [13],inhibited
same,phosphorylation of STAT3 and ERK,[8]; [13],inhibited
same,phosphorylation of STAT3 and ERK,[9]; [13],inhibited
same,phosphorylation of STAT3 and ERK,[10]; [13],not affected
